The text below walks through data of US9233957B2, “5-carbamoyl-adamantan-2-yl amide derivatives, pharmaceutically acceptable salts thereof and preparation process thereof” (SK BIOPHARMACEUTICALS CO., LTD., priority 2011, dated 2016).

The target of one assay is T1, Mouse 11b-HSD1 (Mus musculus, UniProt P50172).
T1 construct: expressed in transfected cells
As to the kind of experiment: Inhibition of cortisone-to-cortisol conversion in CHO-K1 cells over-expressing mouse 11b-HSD1 (HTRF cortisol assay). It is filed as cell-based. To be noted: CHO-K1 cells over-expressing mouse 11b-HSD1, 160 nM cortisone, 3 hours, 37° C. From the text:
(§1) cDNA (human: Accession No. U12978.2; mouse: Accession No. NM_008288.2) coding the full-length amino acid sequence of 11β-HSD1 in a human and a mouse was incorporated into pMSCVpuro (from Clontech. Co. Ltd.), a vector of expressing a mammalian cell for the production of a retrovirus, and the resulting product was introduced into a GP2-293 cell (from Clontech Co. Ltd.), a retrovirus packing cell line together with pVSV-G vector (from Clontech Co. Ltd.) by using a Lipotamine plus reagent (from Invitrogen Co. Ltd.) in accordance with the method set forth in the appendix (by using HTRF cortisol assay kit from Cisbio assays Co., Ltd., catalog No. 62CO2PEB) and stabilized for 48 hours. Thereafter, viruses being obtained from those cells were used to infect CHO-K1 cell (from Korean Cell Line Bank, KCLB No. 10061) and in 24 hours, the cells were treated with 10 μg/ml pumycin (from Sigma Co. Ltd.) for two weeks to produce a stabilized cell system wherein each 11β-HSD1 in humans or in mice was over-expressed. When the cells being maintained, 5 μg/ml of puromycin was put into the medium and used (RPMI (Gibco), 37° C.). • Reference material: The EMBO Journal (2008) 27, 642-653
(§2) The obtained cells with 11b-HSD1 in a human and a mouse being over-expressed were sub-cultured in a 96-well plate with a cell number being 3×10^4 cells per well and stabilized for 24 hours [RPMI (Gibco), at 37° C., as being used in 5 days after thawing]. After a medium as diluted with DMSO including 160 nM of cortisone (from Sigma Co. Ltd.) and a test compound at a different concentration was put into each well in an amount of 200 ul, the well was cultured in a cell cultivator at 37° C. for 3 hours. 10 ul of the cultured solution was put into a 384 well plate and the amount of cortisol as generated was measured using a cortisol kit (from Cisbio international Co. Ltd, HTRF assay) in accordance with the method set forth in the appended manual.
(§3) As a control group, 160 nM of cortisone and 1% of DMSO were put into a corresponding well. The ground value was obtained from a well including only 160 nM of cortisone and 1% of DMSO without cells just like the control group. The calculation for a % inhibition level was made following the manual as appended. • Reference material: The Journal of Steroid Biochemistry and Molecular Biology, Volume 104, Issues 3-5, May 2007, Pages 123-129 • Bioorganic & Medicinal Chemistry Letters Volume 19, Issue 10, 15 May 2009, Pages 2674-2678
(§4) Like the analyzing method as stated above, the efficacy of inhibiting 11b-HSD1 was calculated as IC50 and the results are shown in Table 1: […]
In general terms: Time-resolved FRET reads energy transfer from a long-lived donor to a nearby acceptor.

A further assay addresses T2, Human 11b-HSD1 (Homo sapiens, UniProt P28845).
T2 construct: expressed in transfected cells
As to the kind of experiment: Inhibition of cortisone-to-cortisol conversion in CHO-K1 cells over-expressing human 11b-HSD1 (HTRF cortisol assay). It is filed as cell-based. The following applies: CHO-K1 cells over-expressing human 11b-HSD1, 160 nM cortisone, 3 hours, 37° C.
Text: as §1, §2, §3, §4

By IC50 is commonly meant the point on the concentration scale where inhibition reaches its midpoint.

T2 sequence (P28845 whole entry): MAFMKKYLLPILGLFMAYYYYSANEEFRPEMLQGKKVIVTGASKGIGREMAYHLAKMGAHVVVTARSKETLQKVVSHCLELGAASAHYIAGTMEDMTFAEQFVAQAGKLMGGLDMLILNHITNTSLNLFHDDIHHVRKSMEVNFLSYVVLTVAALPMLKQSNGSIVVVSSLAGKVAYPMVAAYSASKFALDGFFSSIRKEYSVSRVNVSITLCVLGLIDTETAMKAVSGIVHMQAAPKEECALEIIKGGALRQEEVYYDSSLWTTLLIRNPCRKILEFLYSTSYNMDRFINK
T1 sequence (P50172 whole entry): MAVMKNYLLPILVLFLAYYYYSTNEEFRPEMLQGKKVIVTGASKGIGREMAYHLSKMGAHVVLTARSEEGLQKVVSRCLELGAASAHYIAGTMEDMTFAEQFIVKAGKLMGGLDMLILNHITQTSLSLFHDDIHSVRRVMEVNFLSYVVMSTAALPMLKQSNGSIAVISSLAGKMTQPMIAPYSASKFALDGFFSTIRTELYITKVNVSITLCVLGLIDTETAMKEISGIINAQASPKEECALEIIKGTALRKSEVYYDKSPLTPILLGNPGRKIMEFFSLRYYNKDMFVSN

For `Cc1ccc(C(=O)N[C@H]2C3CC4CC2C[C@](C(N)=O)(C4)C3)s1` [Example 24, N-(5-carbamoyl-2-adamantyl)-5-methylthiophene-2-carboxamide], the values for the IC50 on Mouse 11b-HSD1 and against Human 11b-HSD1 were 100 to 500 nM and less than 100 nM, respectively.

For `NC(=O)[C@]12CC3CC(C1)[C@@H](NC(=O)c1ccc(-c4ccc(F)cc4)o1)C(C3)C2` [Example 25, N-(5-carbamoyl-2-adamantyl)-5-(4-fluorophenyl)furan-2-carboxamide], the IC50 at Mouse 11b-HSD1 and at Human 11b-HSD1 was less than 100 nM each time.

With `COc1ccc(-c2ccc(C(=O)N[C@H]3C4CC5CC3C[C@](C(N)=O)(C5)C4)o2)cc1` [Example 28, N-(5-carbamoyl-2-adamantyl)-5-(4-methoxyphenyl)furan-2-carboxamide], the half-inhibitory concentration (IC50) on Mouse 11b-HSD1 is 100 to 500 nM; at Human 11b-HSD1, less than 100 nM.

Consider `NC(=O)[C@]12CC3CC(C1)[C@@H](NC(=O)c1ccc(-c4ccc(F)c(F)c4)o1)C(C3)C2` [Example 29, N-(5-carbamoyl-2-adamantyl)-5-(3,4-difluorophenyl)furan-2-carboxamide], for which the IC50 is 100 to 500 nM against Mouse 11b-HSD1 and less than 100 nM on Human 11b-HSD1.

Regarding `NC(=O)[C@]12CC3CC(C1)[C@@H](NC(=O)c1ccc(-c4ccc(Cl)c(Cl)c4)o1)C(C3)C2` [Example 31, N-(5-carbamoyl-2-adamantyl)-5-(3,4-dichlorophenyl)furan-2-carboxamide], the IC50 against Mouse 11b-HSD1 is 100 to 500 nM; against Human 11b-HSD1, less than 100 nM.

Take `NC(=O)[C@]12CC3CC(C1)[C@@H](NC(=O)c1ccc(-c4cc(Cl)cc(Cl)c4)o1)C(C3)C2` [Example 32, N-(5-carbamoyl-2-adamantyl)-5-(3,5-dichlorophenyl)furan-2-carboxamide]: the IC50 against Mouse 11b-HSD1 is 100 to 500 nM; on Human 11b-HSD1, less than 100 nM.

For `Cn1c(C(=O)N[C@H]2C3CC4CC2C[C@](C(N)=O)(C4)C3)ccc1-c1cccc(Cl)c1` [Example 33, N-(5-carbamoyl-2-adamantyl)-5-(3-chlorophenyl)-1-methylpyrrole-2-carboxamide], the IC50 on Mouse 11b-HSD1 and against Human 11b-HSD1 was less than 100 nM in each case.

On to `Cn1c(C(=O)N[C@H]2C3CC4CC2C[C@](C(N)=O)(C4)C3)ccc1-c1ccc(Cl)cc1` [Example 35, N-(5-carbamoyl-2-adamantyl)-5-(4-chlorophenyl)-1-methylpyrrole-2-carboxamide], for which the IC50 against Mouse 11b-HSD1 is 100 to 500 nM; at Human 11b-HSD1 it was less than 100 nM.

For `Cn1c(C(=O)N[C@H]2C3CC4CC2C[C@](C(N)=O)(C4)C3)ccc1-c1ccc(F)cc1` [Example 36, N-(5-carbamoyl-2-adamantyl)-5-(4-fluorophenyl)-1-methylpyrrole-2-carboxamide], the IC50 against Mouse 11b-HSD1 and at Human 11b-HSD1 was less than 100 nM throughout.

As to `Cn1c(C(=O)N[C@H]2C3CC4CC2C[C@](C(N)=O)(C4)C3)ccc1-c1ccc(C(F)(F)F)cc1` [Example 37, N-(5-carbamoyl-2-adamantyl)-1-methyl-5-[4-(trifluoromethyl)phenyl]pyrrole-2-carboxamide], the IC50 at Mouse 11b-HSD1 was 100 to 500 nM; at Human 11b-HSD1 it was less than 100 nM.

In the case of `NC(=O)[C@]12CC3CC(C1)[C@@H](NC(=O)c1ccc(-c4ccc(Cl)cc4)s1)C(C3)C2` [Example 41, N-(5-carbamoyl-2-adamantyl)-5-(4-chlorophenyl)thiophene-2-carboxamide], the values for the IC50 at Mouse 11b-HSD1 and against Human 11b-HSD1 were 100 to 500 nM and less than 100 nM, respectively.

As for `NC(=O)[C@]12CC3CC(C1)[C@@H](NC(=O)c1ccc(-c4cccc(Cl)c4)s1)C(C3)C2` [Example 42, N-(5-carbamoyl-2-adamantyl)-5-(3-chlorophenyl)thiophene-2-carboxamide], the IC50 on Mouse 11b-HSD1 and at Human 11b-HSD1 was less than 100 nM in each case.

As for `NC(=O)[C@]12CC3CC(C1)[C@@H](NC(=O)c1ccc(-c4ccccc4F)s1)C(C3)C2` [Example 44, N-(5-carbamoyl-2-adamantyl)-5-(2-fluorophenyl)thiophene-2-carboxamide], the IC50 against Mouse 11b-HSD1 and at Human 11b-HSD1 was less than 100 nM in each case.

As for `COc1cccc(C(=O)N[C@H]2C3CC4CC2C[C@](C(N)=O)(C4)C3)n1` [Example 45, N-(5-carbamoyl-2-adamantyl)-6-methoxypyridine-2-carboxamide], the IC50 against Mouse 11b-HSD1 was 100 to 500 nM; against Human 11b-HSD1, less than 100 nM.

As for `CCCOc1cccc(C(=O)N[C@H]2C3CC4CC2C[C@](C(N)=O)(C4)C3)n1` [Example 46, N-(5-carbamoyl-2-adamantyl)-6-propoxypyridine-2-carboxamide], the IC50 against Mouse 11b-HSD1 and against Human 11b-HSD1 was less than 100 nM throughout.

Regarding `NC(=O)[C@]12CC3CC(C1)[C@@H](NC(=O)c1cccc(OCc4ccccc4)n1)C(C3)C2` [Example 47, N-(5-carbamoyl-2-adamantyl)-6-phenylmethoxypyridine-2-carboxamide], the IC50 against Mouse 11b-HSD1 was 100 to 500 nM; on Human 11b-HSD1 it was less than 100 nM.

With `CCCOc1cccc2ccc(C(=O)N[C@H]3C4CC5CC3C[C@](C(N)=O)(C5)C4)nc12` [Example 49, N-(5-carbamoyl-2-adamantyl)-8-propoxyquinoline-2-carboxamide], the values for the IC50 against Mouse 11b-HSD1 and on Human 11b-HSD1 were 100 to 500 nM and less than 100 nM, respectively.

`COc1cccc2ccc(C(=O)N[C@H]3C4CC5CC3C[C@](C(N)=O)(C5)C4)nc12` [Example 50, N-(5-carbamoyl-2-adamantyl)-8-methoxyquinoline-2-carboxamide]: the half-maximal inhibitory concentration (IC50) on Mouse 11b-HSD1 was 100 to 500 nM; on Human 11b-HSD1, less than 100 nM.

Regarding `CCOc1cccc2ccc(C(=O)N[C@H]3C4CC5CC3C[C@](C(N)=O)(C5)C4)nc12` [Example 51, N-(5-carbamoyl-2-adamantyl)-8-ethoxyquinoline-2-carboxamide], the half-inhibitory concentration (IC50) against Mouse 11b-HSD1 and on Human 11b-HSD1 was less than 100 nM each time.

`CC(C)Oc1cccc2ccc(C(=O)N[C@H]3C4CC5CC3C[C@](C(N)=O)(C5)C4)nc12` [Example 52, N-(5-carbamoyl-2-adamantyl)-8-propan-2-yloxyquinoline-2-carboxamide]: the IC50 at Mouse 11b-HSD1 was 100 to 500 nM; at Human 11b-HSD1, less than 100 nM.

Regarding `NC(=O)[C@]12CC3CC(C1)[C@@H](NC(=O)c1ccc4cccc(OCc5ccccc5)c4n1)C(C3)C2` [Example 53], the IC50 on Mouse 11b-HSD1 is greater than 500 nM; against Human 11b-HSD1 it was less than 100 nM.

In the case of `CC(C)COc1cccc2ccc(C(=O)N[C@H]3C4CC5CC3C[C@](C(N)=O)(C5)C4)nc12` [Example 54, N-(5-carbamoyl-2-adamantyl)-8-(2-methylpropoxy)quinoline-2-carboxamide], the IC50 against Mouse 11b-HSD1 is greater than 500 nM; against Human 11b-HSD1, less than 100 nM.

In the case of `CCC(C)Oc1cccc2ccc(C(=O)N[C@H]3C4CC5CC3C[C@](C(N)=O)(C5)C4)nc12` (some centres unmarked) [Example 56, 8-butan-2-yloxy-N-(5-carbamoyl-2-adamantyl)quinoline-2-carboxamide], the IC50 on Mouse 11b-HSD1 is 100 to 500 nM; against Human 11b-HSD1, less than 100 nM.

`CN(C)c1cccc(C(=O)N[C@H]2C3CC4CC2C[C@](C(N)=O)(C4)C3)n1` [Example 57, N-(5-carbamoyl-2-adamantyl)-6-(dimethylamino)pyridine-2-carboxamide]: the IC50 at Mouse 11b-HSD1 and against Human 11b-HSD1 was less than 100 nM throughout.

`NC(=O)[C@]12CC3CC(C1)[C@@H](NC(=O)c1cccc(N4CCCCC4)n1)C(C3)C2` [Example 58, N-(5-carbamoyl-2-adamantyl)-6-piperidin-1-yl-pyridine-2-carboxamide]: the IC50 at Mouse 11b-HSD1 and against Human 11b-HSD1 was less than 100 nM throughout.

In the case of `CCN(CC)c1cccc(C(=O)N[C@H]2C3CC4CC2C[C@](C(N)=O)(C4)C3)n1` [Example 59, N-(5-carbamoyl-2-adamantyl)-6-(diethylamino)pyridine-2-carboxamide], the IC50 against Mouse 11b-HSD1 and at Human 11b-HSD1 was less than 100 nM throughout.

Consider `CCCNc1cccc(C(=O)N[C@H]2C3CC4CC2C[C@](C(N)=O)(C4)C3)n1` [Example 60, N-(5-carbamoyl-2-adamantyl)-6-(propylamino)pyridine-2-carboxamide], for which the IC50 at Mouse 11b-HSD1 and against Human 11b-HSD1 was less than 100 nM in each case.

As for `NC(=O)[C@]12CC3CC(C1)[C@@H](NC(=O)c1cccc(N4CCc5ccccc5C4)n1)C(C3)C2` [Example 61, N-(5-carbamoyl-2-adamantyl)6-(3,4-dihydro-1H-isoquinolin-2-yl)pyridine-2-carboxamide], the IC50 against Mouse 11b-HSD1 and at Human 11b-HSD1 was less than 100 nM throughout.
